The source of these data is patent US20120107888A1, “MODULATION OF FERMENTATION PRODUCTS THROUGH VITAMIN SUPPLEMENTATION” (Qteros, Inc., priority 2011, published 2012).

Bounds are passed on as bounds.

The assay has as its system C. phytofermentans. The note with it: basal medium; ethanol production from pretreated corn stover.

Experimental: To examine the effect of individual nutrients (e.g., vitamins or amino acids) on the growth and/or ethanol production of C. phytofermentans, complex nutrients such as yeast extract were reduced to a minimal concentration that will permit sub-optimal growth. Each specific nutrient is added in a titration of increasing amount until a “saturation” of effect is observed.
Corn Stover, Mono and Dibasic Potassium Phosphate and Sodium Chloride were sterilized by autoclaving and the remaining components were added aseptically to each fermentation flask. DBY and CSP were separately prepared each as 100 g/L stocks and autoclaved.
All solutions and materials were degassed prior to use. Prior to inoculation, all flasks receive a sterile addition of commercial cellulases (from Novozymes) consisting of (per 100 mL medium): 0.25 mL Cat# NS50013 and 0.83 mL of diluted (1/10 in water) Cat# NS22002. […]
Following inoculation, flasks were placed in shaking fermenters at 35° C. with agitation at 175 rpm and sampled daily. […] Samples were analyzed for sugars (cellobiose, xylose, arabinose, and glucose) and fermentation products (formic, lactic, and acetic acids and ethanol) using HPLC.

`O=C(O)c1cccnc1` [nicotinic acid, Nicotinic acid]: the “nicotinic acid supplementation above which a saturation effect is seen” value is above 10 mg/L.
